# Columns and labels:
# [1] = Pharmacokinetic analysis in STZ-induced diabetes mellitus Wistar rats, single subcutaneous dose, serum ELISA; format: in vivo; settings: male, rat, sc, STZ diabetic Wistar rats, single dose 5 mg/kg subcutaneous
# Method: Streptozotocin (STZ), preferentially toxic to pancreatic beta cells, is commonly used to model […] diabetes mellitus (DM) in numerous species, including Wistar rat. 12-14 week-old male Wistar rats (300-380 g body weight) were selected for the study. Rats were randomly distributed to different groups based on ad-lib fed blood glucose and body weight. The diabetes mellitus (DM) was induced in Wister rats by single intraperitoneal injection of streptozotocin at 60 mg/kg STZ (n=6) in both control and test group for two weeks.
# Basal glucose levels were recorded for all the animals before injecting STZ. All animals were again evaluated for the elevated blood levels after 15 days of STZ treatment. After the confirmation of high glucose levels animals were treated with single dose (5 mg/kg) of Liraglutide and D-Liraglutide by subcutaneous route.
# Blood samples were collected at 0 (Pre-dose), 1, 2, 4, 8, 12, 24, 48, 72, 96, 120 and 144 h, post dose. At each time point, approximately, 0.3 mL of blood was withdrawn through retro orbital plexus under light isoflurane anesthesia in a labeled microfuge tube. All blood samples were centrifuged at 7000 rpm for 5 min at set temperature of 4° C. […]
# The ELISA was performed for the quantitative measurement of the Liraglutide in the serum samples using Cloud-Clone Corp. (CEV769Ge 96 Tests) kit. […]
# [2] = once-weekly subcutaneous injection, dose of 0.5 or 1 mg; cited from earlier work
Compound,MRT [1] [h],half-life [2] [h],time to reach steady state [2]
CCCCCCCCCCCCCCCC(=O)N[C@@H](CCC(=O)NCCCC[C@H](NC(=O)[C@H](C)NC(=O)[C@H](C)NC(=O)[C@H](CCC(N)=O)NC(=O)CNC(=O)[C@H](CCC(=O)O)NC(=O)[C@H](CC(C)C)NC(=O)[C@H](Cc1ccc(O)cc1)NC(=O)[C@H](CO)NC(=O)[C@H](CO)NC(=O)[C@@H](NC(=O)[C@H](CC(=O)O)NC(=O)[C@H](CO)NC(=O)[C@@H](NC(=O)[C@H](Cc1ccccc1)NC(=O)[C@@H](NC(=O)CNC(=O)[C@H](CCC(=O)O)NC(=O)[C@H](C)NC(=O)[C@@H](N)Cc1cnc[nH]1)[C@@H](C)O)[C@@H](C)O)C(C)C)C(=O)N[C@@H](CCC(=O)O)C(=O)N[C@@H](Cc1ccccc1)C(=O)N[C@H](C(=O)N[C@@H](C)C(=O)N[C@@H](Cc1c[nH]c2ccccc12)C(=O)N[C@@H](CC(C)C)C(=O)N[C@H](C(=O)N[C@@H](CCCNC(=N)N)C(=O)NCC(=O)N[C@@H](CCCNC(=N)N)C(=O)NCC(=O)O)C(C)C)[C@@H](C)CC)C(=O)O [Liraglutide],34.8,–,–
semaglutide,–,170,4-5 weeks

# Source: patent publication US20220143150A1 (ENZENE BIOSCIENCES LIMITED, priority 2019, published 2022)
